Results as given in patent US20150315218A1, “SALTS OF PRODRUGS OF PIPERAZINE AND SUBSTITUTED PIPERIDINE ANTIVIRAL AGENTS” (Bristol-Myers Squibb Company, priority 2004, published 2015).
Values after ≈ are worked out from the molar mass of the structure shown. Counter-ions that a name gives are not always drawn. Like-named read-outs stand apart in the source and are kept apart here. Marks after values point to notes of the source that are not given here. Each block holds one compound with its values, some of them ahead of it.

What was measured:
[1] = IV and PO pharmacokinetic studies of prodrug salts (Iab, Ibb, Icb) in the dog, with historical parent data; assay type: in vivo, beagle dogs; conditions: for concentration at 24 hr: read-out: C-24 hr (μM), PO; for clearance: read-out: CLtot (mL/min/kg), IV; for Vd: read-out: Vdss (L/kg), IV
Protocol: The IV and PO studies of Iab were conducted in a crossover fashion in three male beagle dogs (11±1.1 kg, Marshall Farms USA Inc., North Rose, N.Y.). There was a two-week washout period between the IV and PO studies.
(§1) In the IV study, Iab was infused via the cephalic vein at 1.2 mg/kg (free acid, or 0.95 mg/kg of IVa equivalent) over 5 min at a constant rate of 0.1 mL/kg/min. The concentration of the dosing solution was 2.4 mg/mL, and the dosing volume was 0.5 mL/kg. Serial blood samples were collected from the femoral artery before dosing and at 5, 10, 15, 30, 45 min, 1, 2, 4, 6, 8 and 24 hr after dosing.
In the PO study, the dogs were fasted overnight before dosing. Iab was administered by oral gavage at 6.6 mg/kg (free acid, or 5.2 mg/kg of IVa equivalent). The concentration of the dosing solution was 13.2 mg/mL, and the dosing volume was 0.5 mL/kg. Serial blood samples were collected before dosing and at 15, 30, 45 min, 1, 2, 4, 6, 8 and 24 hr after dosing.
The IV and PO studies of Ibb were conducted in male beagle dogs (10±0.78 kg, Marshall Farms USA Inc., North Rose, N.Y.). Three dogs were used in each study. Of the three dogs, two same dogs were used for both IV and PO studies. There was a two-week washout period between the IV and PO studies.
The concentration of the dosing solution was 2.6 mg/mL, and the dosing volume was 0.5 mL/kg. Serial blood samples were collected from the femoral artery before dosing and at 5, 10, 15, 30, 45 min, 1, 2, 4, 6, 8 and 24 hr after dosing.
In the PO study, the dogs were fasted overnight before dosing. […] The concentration of the dosing solution was 7.0 mg/mL, and the dosing volume was 1 mL/kg. Serial blood samples were collected before dosing and at 15, 30, 45 min, 1, 2, 4, 6, 8 and 24 hr after dosing.
The IV and PO studies of Icb were conducted in a crossover fashion in three male beagle dogs (12±2.8 kg, Marshall Farms USA Inc., North Rose, N.Y.). There was a two-week washout period between the IV and PO studies.
as §1, with “Icb” for “Iab”, “1.3” for “1.2”, “1.0” for “0.95”, “IVe” for “IVa”, “2.6” for “2.4”
In the PO study, the dogs were fasted overnight before dosing. […] The concentration of the dosing solution was 12 mg/mL, and the dosing volume was 0.5 mL/kg. Serial blood samples were collected before dosing and at 15, 30, 45 min, 1, 2, 4, 6, 8 and 24 hr after dosing.

[2] = IV and PO pharmacokinetic studies of prodrug salts (Iab, Ibb, Icb) in the rat, with historical parent data; assay type: in vivo, Sprague-Dawley rats; conditions: for Vd: read-out: Vdss (L/kg), IV; for clearance: read-out: CLtot (mL/min/kg), IV
Protocol: (§2) All blood samples (0.3 mL) were colleted in microtainers containing K2EDTA (Becton Dickinson, Franklin Lakes, N.J.) and placed on chipped ice. After centrifugation, plasma was separated and stored at −20° C. until analysis. The mono-lysine salt of Iab (Form 3, Lot 1) was used for the pharmacokinetic studies. The dosing solutions of Iab were prepared in either sterile water (for IV administration in dogs and monkeys) or distilled water (for all other dose administration).
Male Sprague-Dawley rats (300-350 g, Hilltop Lab Animals, Inc., Scottsdale, Pa.) with cannulas implanted in the jugular vein were used. The rats were fasted overnight in the PO pharmacokinetic studies. Blood samples were collected from the jugular vein.
In the IV study, Iab was delivered at 1.4 mg/kg (free acid, or 1.1 mg/kg of IVa equivalent) as a bolus over 0.5 min (n=3).
In the PO study, Iab was administered at 7.9 mg/kg (free acid, or 6.3 mg/kg of IVa equivalent) by oral gavage (n=3). The concentration of the dosing solution was 4.0 mg/mL, and the dosing volume was 2 mL/kg.
The pharmacokinetic parameters of Iab and IVa were calculated by Non-Compartmental Analysis using the […]™ software program (version 4.0.2, InnaPhase Co., Philadelphia, Pa.). The Cmax and Tmax values were recorded directly from experimental observations. The AUC0-n and AUCtot values were calculated using the mixed log-linear trapezoidal summations. The total body clearance (Cl), mean residence time (MRT), and the steady state volume of distribution (Vss) were also calculated after intravenous administration. The absolute oral bioavailability (expressed as %) was estimated by taking the ratio of dose-normalized AUC values after oral doses to those after intravenous doses.
as §2, with “Ibb” for “Iab”, “3)” for “3, Lot 1)”
(§3) The Cmax and Tmax values were recorded directly from experimental observations. The AUC0-n and AUCtot values were calculated using the mixed log-linear trapezoidal summations. The total body clearance (Cl), mean residence time (MRT), and the steady state volume of distribution (Vss) were also calculated after intravenous administration. The absolute oral bioavailability (expressed as %) was estimated by taking the ratio of dose-normalized AUC values after oral doses to those after intravenous doses.
In the IV study, Icb was delivered at 1.4 mg/kg (free acid, or 1.1 mg/kg of IVe equivalent) as a bolus over 0.5 min (n=3).
In the PO study, Icb was administered at 6.9 mg/kg (free acid, or 5.6 mg/kg of IVe equivalent) by oral gavage (n=3).
as §3

physchem = conditions: thermodynamic from solid
[3] = male, beagle, plasma, after IV prodrug (~1 mg/kg parent equivalent), analyte = label, read-out: AUCtot (μM · hr), IV
[4] = male, beagle, plasma, after IV prodrug, analyte = label, read-out: t1/2 (hr), IV (converted)
[5] = oral prodrug vs historical parent
[6] = plasma, historical parent, IV 1 mg/kg
[7] = male, Sprague-Dawley, plasma, after IV prodrug (~1 mg/kg parent equivalent), analyte = label, read-out: AUCtot (μM·hr), IV
[8] = male, Sprague-Dawley, plasma, after IV prodrug, analyte = label, read-out: t1/2 (hr), IV (converted)
[9] = male, beagle, plasma, prodrug after IV administration
[10] = male, Sprague-Dawley, plasma, prodrug after IV administration

Compound: COc1ncc(OC)c2c(C(=O)C(=O)N3CCN(C(=O)c4ccccc4)CC3)c[nH]c12 [IVa, N-(benzoyl)-N′-[(4,7-dimethoxy-6-azaindol-3-yl)-oxoacetyl]piperazine]
IV AUC Ratio of parent (formed from prodrug vs historical parent study) [1]: 0.80
Bioavailability (%) ([1]; beagle, in vivo, po, 5 mg/kg): 57%
Tmax ([1]; beagle, plasma, historical parent, PO 5 mg/kg, read-out: Tmax (hr), PO): 2.9 h
AUC ([1]; male, beagle, plasma, 6.6 mg/kg, after oral prodrug, analyte = label, ND = not detected, read-out: AUCtot (μM · hr), PO): 83 ± 16 µM·h
concentration at 24 hr ([1]; male, beagle, plasma, 6.6 mg/kg, after oral prodrug, analyte = label, ND = not detected): 0.26 ± 0.12 µM
Cmax ([1]; male, beagle, plasma, 6.6 mg/kg, after oral prodrug, analyte = label, ND = not detected, read-out: Cmax (μM), PO): 14 ± 1.3 µM
half-life ([1]; male, beagle, plasma, 6.6 mg/kg, parent after oral prodrug, read-out: t1/2 (hr), PO (converted)): 4.1 ± 0.52 h
AUC [1, 3]: 13 ± 2.2 µM·h
half-life [1, 4]: 5.2 ± 1 h
bioavailability ([1]; male, beagle, plasma, oral prodrug, read-out: Bioavailability (%) of parent from prodrug): 94%
Tmax ([1]; male, beagle, plasma, parent after oral prodrug (~5 mg/kg parent equivalent), read-out: Tmax (hr), PO): 0.25 h
PO AUC Ratio of parent [1, 5]: 1.7
AUC ([1]; plasma, historical parent, IV 1 mg/kg, read-out: AUCtot (μM · hr), IV): 17 ± 3.5 µM·h
clearance [1, 6]: 2.4 ± 0.43 mL/min/kg
MRT ([1]; plasma, historical parent, IV 1 mg/kg, read-out: MRT (hr), IV): 3.3 ± 0.71 h
Vd [1, 6]: 0.45 ± 0.083 L/kg
half-life ([1]; plasma, historical parent, IV 1 mg/kg, read-out: t1/2 (hr), IV (converted)): 2.6 ± 1.2 h
AUC ([1]; plasma, historical parent, PO 5 mg/kg, read-out: AUCtot (μM · hr), PO): 47 ± 7.2 µM·h
concentration at 24 hr ([1]; plasma, historical parent, PO 5 mg/kg): 0.15 ± 0.093 µM
Cmax ([1]; plasma, historical parent, PO 5 mg/kg, read-out: Cmax (μM), PO): 6.5 ± 1.2 µM
half-life ([1]; plasma, historical parent, PO 5 mg/kg, read-out: t1/2 (hr), PO (converted)): 3.8 ± 0.81 h
AUC ([2]; Sprague-Dawley, plasma, historical parent, IV 1 mg/kg, read-out: AUCtot (μM·hr), IV): 3.3 ± 1.1 µM·h
MRT ([2]; Sprague-Dawley, plasma, historical parent, IV 1 mg/kg, read-out: MRT (hr), IV): 2.2 ± 1.5 h
Vd ([2]; Sprague-Dawley, plasma, historical parent, IV 1 mg/kg): 1.5 ± 0.25 L/kg
half-life ([2]; Sprague-Dawley, plasma, historical parent, IV 1 mg/kg, read-out: t1/2 (hr), IV (converted)): 2.4 ± 0.32 h
Tmax ([2]; Sprague-Dawley, plasma, historical parent, PO 5 mg/kg, read-out: Tmax (hr), PO): 2 h
half-life ([2]; Sprague-Dawley, plasma, historical parent, PO 5 mg/kg, read-out: t1/2 (hr), PO (converted)): 1.7 ± 0.92 h
CLtot (mL/min/kg), IV ([2]; historical parent, IV 1 mg/kg): 13 ± 4.0 mL/min/kg
AUCtot (μM·hr), PO ([2]; historical parent, PO 5 mg/kg): 15 ± 6.3 µM·h
Bioavailability (%) ([2]; historical parent, PO 5 mg/kg): 90%
Cmax ([2]; historical parent, PO 5 mg/kg, read-out: Cmax (μM), PO): 4.5 ± 1.5 µM
AUC ([2]; male, Sprague-Dawley, plasma, 7.9 mg/kg, after oral prodrug, analyte = label, ND = not detected (<5 nM), read-out: AUCtot (μM·hr), PO): 13 ± 1.4 µM·h
Cmax ([2]; male, Sprague-Dawley, plasma, 7.9 mg/kg, after oral prodrug, analyte = label, ND = not detected (<5 nM), read-out: Cmax (μM), PO): 3.9 ± 0.98 µM
half-life ([2]; male, Sprague-Dawley, plasma, 7.9 mg/kg, parent after oral prodrug, read-out: t1/2 (hr), PO (converted)): 1.5 ± 0.24 h
AUC [2, 7]: 5.4 ± 0.93 µM·h
half-life [2, 8]: 4.4 ± 1.9 h
bioavailability ([2]; male, Sprague-Dawley, plasma, oral prodrug, calculated from historical IV data of parent, read-out: Bioavailability (%) of parent from prodrug): 62%
Tmax ([2]; male, Sprague-Dawley, plasma, parent after oral prodrug (~5-6 mg/kg parent equivalent), read-out: Tmax (hr), PO): 0.83 h
PO AUC Ratio of parent [2, 5]: 0.69*
bioavailability ([2]; plasma, po, range over rats, dogs and monkeys, read-out: oral bioavailabilities of parent after administration of prodrug): 62 to 94%
solubility (physchem; aqueous, aqueous buffer): 40 to 900 µg/mL (≈ 94.7 to 2130 µM)

AUC [1, 3]: 0.56 ± 0.12 µM·h
half-life [1, 4]: 0.15 h
clearance [1, 9]: 70 mL/min/kg
Vd [1, 9]: 0.3 L/kg
AUC [2, 7]: 3.3 ± 1 µM·h
half-life [2, 8]: 0.16 h
clearance [2, 10]: 14 mL/min/kg
Vd [2, 10]: 0.12 L/kg
solubility (physchem; aqueous solution, aqueous buffer): > 12000 µg/mL
solubility (physchem; aqueous solution, pH 1.4, simulated gastric fluid): 220 µg/mL
Compound: COc1cnc(OC)c2c1c(C(=O)C(=O)N1CCN(C(=O)c3ccccc3)CC1)cn2COP(=O)(O)O [Iab, {3-[(4-benzoylpiperazin-1-yl)(oxo)acetyl]-4,7-dimethoxy-1H-pyrrolo[2,3-c]pyridin-1-yl}methyl dihydrogen phosphate, L-lysine salt (1:1)]

Compound: O=C(C(=O)N1CCN(C(=O)c2ccccc2)CC1)c1cn(COP(=O)(O)O)c2c(-n3ccnn3)ncc(F)c12 [Ibb, [3-[(4-benzoylpiperazin-1-yl)(oxo)acetyl]-4-fluoro-7-(1H-1,2,3-triazol-1-yl)-1H-pyrrolo[2,3-c]pyridin-1-yl]methyl dihydrogen phosphate, L-lysine salt (1:1)]
T1/2 ([1]; IV Ibb […] free acid (1.0 of IVb eqv.), mean ± SD, n = 3): 0.83 ± 0.58 h
prodrug detected in plasma after oral administration ([1]; LLQ = 5 nM): 0.034 µM
half-life [1, 4]: 0.83 h
AUC ([1]; male, beagle, plasma, po, 7 mg/kg, read-out: AUCtot): 0.059 µM·h
Cmax ([1]; male, beagle, plasma, po, 7 mg/kg, read-out: Cmax): 0.034 ± 0.018 µM
Tmax ([1]; male, beagle, plasma, po, 7 mg/kg, read-out: Tmax): 0.33 ± 0.14 h
clearance [1, 9]: 27 mL/min/kg
Vd [1, 9]: 0.35 L/kg
prodrug detected in plasma after oral administration ([2]; LLQ = 5 nM): < 10 nM
half-life [2, 8]: 0.18 h
Cmax ([2]; male, Sprague-Dawley, plasma, po, 6.6 mg/kg, read-out: Cmax): 0.008 ± 0.003 µM
Tmax ([2]; male, Sprague-Dawley, plasma, po, 6.6 mg/kg, read-out: Tmax): 0.25 h
clearance [2, 10]: 19 mL/min/kg
Vd [2, 10]: 0.1 L/kg
solubility (physchem; aqueous solution (pH range 1.5 to 8.7), aqueous buffer): > 11000 µg/mL
